The source of these data is patent US11702419B2, “Heterocyclic compound and use thereof” (Takeda Pharmaceutical Company Limited, priority 2018, dated 2023).

The experiment deals with T1, NMDA receptor composed of four subunits consisting of two sets of heterodimers of NR1 and NR2B (human GRIN1 and GRIN2B-expressing HEK293 cells) (Homo sapiens, UniProt Q13224).
T1 construct: host or cells: HEK293 (tetracycline-inducible expression)
T1 sequence (Q13224 27-1484, other chains not shown): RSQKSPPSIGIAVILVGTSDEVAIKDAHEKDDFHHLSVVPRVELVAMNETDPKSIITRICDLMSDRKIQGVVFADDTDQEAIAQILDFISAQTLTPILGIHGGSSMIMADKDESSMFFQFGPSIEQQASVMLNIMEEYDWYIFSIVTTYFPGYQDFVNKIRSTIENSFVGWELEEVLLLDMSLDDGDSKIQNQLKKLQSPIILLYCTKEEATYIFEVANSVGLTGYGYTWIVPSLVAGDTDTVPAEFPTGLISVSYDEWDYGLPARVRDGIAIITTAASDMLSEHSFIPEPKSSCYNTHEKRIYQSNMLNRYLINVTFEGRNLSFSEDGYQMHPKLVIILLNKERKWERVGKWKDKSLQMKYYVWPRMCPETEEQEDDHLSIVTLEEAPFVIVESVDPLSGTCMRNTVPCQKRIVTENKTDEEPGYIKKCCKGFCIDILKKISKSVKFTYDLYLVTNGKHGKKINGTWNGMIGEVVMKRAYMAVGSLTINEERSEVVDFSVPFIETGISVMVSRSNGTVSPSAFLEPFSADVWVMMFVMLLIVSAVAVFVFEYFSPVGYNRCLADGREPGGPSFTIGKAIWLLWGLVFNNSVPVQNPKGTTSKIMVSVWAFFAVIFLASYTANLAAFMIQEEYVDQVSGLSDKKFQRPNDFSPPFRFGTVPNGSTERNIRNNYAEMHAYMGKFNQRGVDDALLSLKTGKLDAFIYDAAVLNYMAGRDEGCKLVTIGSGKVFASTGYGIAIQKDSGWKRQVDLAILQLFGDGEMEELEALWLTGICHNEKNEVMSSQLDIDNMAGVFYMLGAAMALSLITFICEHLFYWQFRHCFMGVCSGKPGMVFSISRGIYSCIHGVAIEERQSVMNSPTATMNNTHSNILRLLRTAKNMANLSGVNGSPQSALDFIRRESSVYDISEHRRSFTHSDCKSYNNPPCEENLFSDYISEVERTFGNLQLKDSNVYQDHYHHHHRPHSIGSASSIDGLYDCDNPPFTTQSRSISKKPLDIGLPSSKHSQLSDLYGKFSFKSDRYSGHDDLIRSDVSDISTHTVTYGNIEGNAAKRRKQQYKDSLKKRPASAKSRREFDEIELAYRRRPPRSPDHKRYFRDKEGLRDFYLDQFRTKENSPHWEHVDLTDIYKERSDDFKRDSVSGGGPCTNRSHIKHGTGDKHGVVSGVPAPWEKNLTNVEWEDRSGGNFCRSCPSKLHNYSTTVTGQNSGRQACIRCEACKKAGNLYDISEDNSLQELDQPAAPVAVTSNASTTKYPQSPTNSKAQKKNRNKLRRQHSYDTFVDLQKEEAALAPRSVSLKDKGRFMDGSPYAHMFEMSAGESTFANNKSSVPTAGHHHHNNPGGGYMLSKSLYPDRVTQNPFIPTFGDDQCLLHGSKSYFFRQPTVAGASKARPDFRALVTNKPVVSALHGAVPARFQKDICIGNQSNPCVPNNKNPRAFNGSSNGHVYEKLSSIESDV
The experiment is described as follows: NR2B Ca2+ influx assay. Format: cell-based. The note with it: 10 μM compound, glutamic acid/glycine-induced Ca2+ influx, FLIPR, read-out: inhibitory rate (10 μM compound concentration). The method in brief: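 HEK293 cells expressing human GRIN1/GRIN2B were induced with tetracycline (diluted to 2 µg/mL) for 2 h, then Fluo-4AM loaded (2.5 µM) in pH 7.2 buffer with 1.8 mM CaCl2. Compound at 10 µM final was preincubated 15 min at room temperature, then challenged with buffer containing 30 µM glutamate/30 µM glycine. FLIPR fluorescence was read every 3 s for 5 min, with % inhibition from cumulative signal and agonist-free wells set as 100%.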
With `O=C(NCc1cnn2ccn(CC(F)F)c12)c1ccc(OC(F)(F)F)c(F)c1` [Example 81, N-{[1-(2,2-difluoroethyl)-1H-imidazo[1,2-b]pyrazol-7-yl]methyl}-3-fluoro-4-(trifluoromethoxy)benzamide], the inhibition at 10 µM came to 96%.
As to `O=C(NCc1cnn2ccn(CC(F)(F)F)c12)c1cnc(OC(F)F)c(F)c1` [Example 82, 6-(difluoromethoxy)-5-fluoro-N-{[1-(2,2,2-trifluoroethyl)-1H-imidazo[1,2-b]pyrazol-7-yl]methyl}pyridine-3-carboxamide], the inhibition at 10 µM was found to be 72%.
As for `CCn1ccn2ncc(CNC(=O)c3cnc(OC(F)F)c(F)c3)c12` [Example 83, 6-(difluoromethoxy)-N-[(1-ethyl-1H-imidazo[1,2-b]pyrazol-7-yl)methyl]-5-fluoropyridine-3-carboxamide], the inhibition at 10 µM was found to be 94%.
As to `CCn1ccn2ncc(CNC(=O)c3cnc(OC(F)F)c(Cl)c3)c12` [Example 84, 5-chloro-6-(difluoromethoxy)-N-[(1-ethyl-1H-imidazo[1,2-b]pyrazol-7-yl)methyl]pyridine-3-carboxamide], the inhibition at 10 µM is 95%.
Under `Cc1cn2ncc(CNC(=O)c3cnc(OC(F)F)c(F)c3)c2n1C` [Example 85, 6-(difluoromethoxy)-N-[(1,2-dimethyl-1H-imidazo[1,2-b]pyrazol-7-yl)methyl]-5-fluoropyridine-3-carboxamide] stands 97%.
